The test system of experiment [1] is gesunde männliche Probanden. Put plainly: Double-blind 4-way crossover study, 7-day treatment periods, blood pressure and pulse in healthy volunteers. In kind it is in vivo, human. Conditions: for Diastolische Blutdruckwerte am 7. Versuchstag, Mittelwert / Systolische Blutdruckwerte am 7. Versuchstag, Mittelwert: mean of 6 Probanden, day 7, lying, 2,5 mg Cilazapril and/or 120 mg Propranolol daily; for Abfall des systolischen und diastolischen Blutdrucks: Monotherapie (2,5 mg Cilazapril or 120 mg Propranolol), day 7, healthy volunteers. The procedure:
[…] Proband […], wurde vor Beginn der Studie von jedem Probanden die […], und man […] Kontrollen verbunden war: […] Die Probanden hatten jeweils an den Versuchstagen 0 bis 6 […] zu […] Abend […] noch geraucht. Nach 5-minütiger Ruhepause im Sitzen wurden systolischer und diastolischer Blutdruck und Puls […] die Probanden […], und man […] unter Ueberwachung die Medikation mit 100 ml Leitungswasser und […] Hause. Am […] Probanden […]; die Untersuchungen […] bei 15° erhobenem Oberkörper durchgeführt. Nach jeweils 15-minütiger […] und Puls zu den Zeitpunkten -2, 1, 2, 6, 8 und 24 Stunden gemessen.

For experiment [2], the system named is Patienten mit einer essentiellen Hypertonie. Put plainly: Crossover study, 3-week treatment periods, sitting blood pressure in hypertensive patients. It is filed as in vivo, human. Particulars: 3 weeks treatment, 2,5 mg Cilazapril and/or 120 mg Propranolol; for mittlere Senkung des diastolischen Blutdrucks: 2 Stunden after dosing, sitting, 13 patients; for Ansprechen (Senkung des diastolischen Blutdrucks auf unter 90 mmHg): number of responders. On the procedure:
B) Zehn männliche und drei weibliche Patienten mit einer essentiellen Hypertonie im Alter von 43-62 Jahren und mit einem Gewicht von 64-106 kg nahmen an dieser Crossover-Studie teil, die folgende drei Behandlungsabschnitte von jeweils 3 Wochen umfasste, wobei die Abschnitte (1) und (2) je nach Gruppe vertauscht waren: • (1) 2,5 mg Cilazapril • (2) 120 mg Propranolol • (3) 2,5 mg Cilazapril plus 120 mg Propranolol.
Mit Ausnahme von drei Patienten erhielt keiner während mindestens 2 Wochen vor Beginn einer zweiwöchigen Placebo-Behandlung eine blutdrucksenkende Medikation. […] Dann wurden die Patienten wahlweise in zwei Gruppen eingeteilt, wobei die eine Gruppe zuerst mit Cilazapril und die andere zuerst mit Propranolol behandelt wurde. Nach der dreiwöchigen Behandlungsdauer wurde die Medikation in den beiden Gruppen ausgetauscht. Während der Behandlungsabschnitte wurden alle Messungen 2 Stunden nach Verabreichung durchgeführt, wobei der Blutdruck jeweils im Sitzen gemessen wurde.
Als "Ansprechen" auf eine Therapie wurde in dieser Studie eine Senkung des diastolischen Blutdrucks auf unter 90 mmHg defineriert.

The subject of experiment [3] is Patienten, deren Bluthochdruck mit Captopril behandelt wird. Particulars: added to Captopril treatment; Amery et al., Clinical Science 61 (1981); cited from earlier work.

Turning to `CCOC(=O)[C@H](CCc1ccccc1)N[C@H]1CCCN2CCC[C@@H](C(=O)O)N2C1=O` [Cilazapril, 9(S)-[1-(S)-Aethoxycarbonyl-3-phenylpropylamino]octahydro-10-oxo-6H-pyridazo[1,2-a]-[1,2]diazepin-1(S)-carbonsäure], the “Diastolische Blutdruckwerte am 7. Versuchstag, Mittelwert” value was 72 mmHg in experiment [1] (1 Std); 69 mmHg in experiment [1] (2 Std); 63 mmHg in experiment [1] (6 Std); 66 mmHg in experiment [1] (8 Std); 74 mmHg in experiment [1] (24 Std); 73 mmHg in experiment [1] (-2 Std). For the same molecule, the “Systolische Blutdruckwerte am 7. Versuchstag, Mittelwert” value came to 109 mmHg in experiment [1] (1 Std); 104 mmHg in experiment [1] (2 Std); 107 mmHg in experiment [1] (6 Std); 108 mmHg in experiment [1] (8 Std); 118 mmHg in experiment [1] (24 Std); 109 mmHg in experiment [1] (-2 Std). Besides, in experiment [1], the “Abfall des systolischen und diastolischen Blutdrucks” value was “ca. 7 mmHg”. In experiment [1] (Monotherapie, 2,5 mg Cilazapril, day 7), the “Zunahme der Herzfrequenz” value is reported as “ca. 5 Schläge/Minute”. The “mittlere Senkung des diastolischen Blutdrucks” value in experiment [2] is given as 8 mmHg. The “Ansprechen (Senkung des diastolischen Blutdrucks auf unter 90 mmHg)” value in experiment [2] is listed as 4 von 13 Patienten.
For the molecule `CC(C)NCC(O)COc1cccc2ccccc12` (stereo not drawn) [Propranolol], the “Diastolische Blutdruckwerte am 7. Versuchstag, Mittelwert” value in experiment [1] (1 Std) is 63 mmHg; in experiment [1] (2 Std), 67 mmHg; in experiment [1] (6 Std), 60 mmHg; in experiment [1] (8 Std), 65 mmHg; in experiment [1] (24 Std) it was 76 mmHg; in experiment [1] (-2 Std), 72 mmHg. Besides, the “Systolische Blutdruckwerte am 7. Versuchstag, Mittelwert” value is 106 mmHg in experiment [1] (1 Std); 106 mmHg in experiment [1] (2 Std); 110 mmHg in experiment [1] (6 Std); 108 mmHg in experiment [1] (8 Std); 115 mmHg in experiment [1] (24 Std); 111 mmHg in experiment [1] (-2 Std). In addition, the “Abfall des systolischen und diastolischen Blutdrucks” value in experiment [1] was “ca. 7 mmHg”. In addition, the “Abnahme der Herzfrequenz” value in experiment [1] (Monotherapie, 120 mg Propranolol, day 7) is listed as “ca. 8 Schläge/Minute”. Further, the “Blood pressure effect of additional Propranolol” value in experiment [3] is given as “eine weitere Blutdrucksenkung”. For the same molecule, in experiment [2], the “mittlere Senkung des diastolischen Blutdrucks” value was 9 mmHg. The “Ansprechen (Senkung des diastolischen Blutdrucks auf unter 90 mmHg)” value in experiment [2] was 2 von 13 Patienten.

(Values after patent EP0334164A2, “Antihypertensive combination preparation” (F. HOFFMANN-LA ROCHE AG, priority 1988, dated 1989).)
